Experimental data reported in patent US8906904B2, “Alkoxy pyrazoles as soluble guanylate cyclase activators” (Boehringer Ingelheim International GmbH, priority 2012, dated 2014).
≈ marks a conversion by molar mass, not a printed value.

Assay: Assessment of solubility (McIlvaine buffers, 24 h shake, UPLC-UV)
Assay type: physicochemical
Conditions: kinetic from dmso stock
In short: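 Compounds from 10 mM DMSO stocks were shaken for 24 h at room temperature in McIlvaine buffers at pH 2.2, 4.5 and 6.8 (2.5% v/v DMSO final), then filtered. Filtrates were quantified by UPLC-UV at 254 nm against a 50:50 acetonitrile/water reference assumed fully dissolved, as a single determination.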

| SMILES | solubility at 24 h (pH 2.2, aqueous buffer) [µg/mL] | solubility at 24 h (pH 4.5, aqueous buffer) [µg/mL] | solubility at 24 h (pH 6.8, aqueous buffer) [µg/mL] |
| --- | --- | --- | --- |
| CCOc1c(C(=O)O)cnn1-c1cccc(-c2cccc(C)c2OCc2ccc3c(c2C)CCN(CC2(F)COC2)C3)n1 [Compound 208] | 82 (≈ 140 µM) | 47 (≈ 80.1 µM) | 57 (≈ 97.2 µM) |
| COc1c(C(=O)O)cnn1-c1cccc(-c2ccccc2OCc2ccc3c(c2)CCN(C2CCOCC2)C3)n1 [Compound 209] | 110 (≈ 203 µM) | 81 (≈ 150 µM) | 84 (≈ 155 µM) |
| CCOc1c(C(=O)O)cnn1-c1cccc(-c2cccc(C)c2OCc2cc(C)c3c(c2)CCN(C(C)COC)C3)n1 (stereo not drawn) [Compound 210] | 110 (≈ 193 µM) | 87 (≈ 152 µM) | 87 (≈ 152 µM) |
| CCOc1c(C(=O)O)cnn1-c1cccc(-c2cccc(C)c2OCc2ccc3c(c2C)CCN(C[C@@H]2COCCO2)CC3)n1 [Compound 211] | 95 (≈ 155 µM) | 82 (≈ 134 µM) | 78 (≈ 127 µM) |
| CCOc1c(C(=O)O)cnn1-c1cccc(-c2cccc(C)c2OCc2ccc3c(c2C)CCN(C[C@H]2COCCO2)CC3)n1 [Compound 212] | 92 (≈ 150 µM) | 79 (≈ 129 µM) | 75 (≈ 122 µM) |
| CCOc1c(C(=O)O)cnn1-c1cccc(-c2cccc(C)c2OCc2ccc3c(c2)CCN(C2COC2)CC3)n1 [Compound 213] | 85 (≈ 153 µM) | 66 (≈ 119 µM) | 72 (≈ 130 µM) |
| CCOc1c(C(=O)O)cnn1-c1cccc(-c2cccc(C)c2OCc2ccc3c(c2C)CCN(C[C@H]2CCCCO2)CC3)n1 [Compound 214] | 81 (≈ 133 µM) | 64 (≈ 105 µM) | 69 (≈ 113 µM) |
| CCOc1c(C(=O)O)cnn1-c1cccc(-c2cccc(C)c2OCc2ccc3c(c2C)CCN(C[C@@H]2CCCCO2)CC3)n1 [Compound 215] | 86 (≈ 141 µM) | 70 (≈ 115 µM) | 76 (≈ 124 µM) |
| COc1c(C(=O)O)cnn1-c1cccc(-c2cccc(C)c2OCc2ccc3c(c2)C(C)(C)CN(C2CCOC2)C3)n1 (stereo not drawn) [Compound 217] | 97 (≈ 171 µM) | 73 (≈ 128 µM) | 69 (≈ 121 µM) |
| COc1c(C(=O)O)cnn1-c1cccc(-c2cccc(C)c2OCc2ccc3c(c2)C(C)(C)CN(C2CCCOC2)C3)n1 (stereo not drawn) [Compound 218] | 120 (≈ 206 µM) | 85 (≈ 146 µM) | 75 (≈ 129 µM) |
| COc1c(C(=O)O)cnn1-c1cccc(-c2cccc(C)c2OCc2ccc3c(c2)C(C)(C)CN(CC2COCCO2)C3)n1 (stereo not drawn) [Compound 219] | 110 (≈ 184 µM) | 76 (≈ 127 µM) | 74 (≈ 124 µM) |
| CCOc1c(C(=O)O)cnn1-c1cccc(-c2cccc(C)c2OCc2ccc3c(c2OC)CCN(C2CCOCC2)C3)n1 [Compound 220] | 100 (≈ 167 µM) | 77 (≈ 129 µM) | 86 (≈ 144 µM) |
| CCOc1c(C(=O)O)cnn1-c1cccc(-c2cccc(C)c2OCc2ccc3c(c2OC)CCN(C2COC2)C3)n1 [Compound 221] | 100 (≈ 175 µM) | 72 (≈ 126 µM) | 94 (≈ 165 µM) |
| COc1c(C(=O)O)cnn1-c1cccc(-c2cccc(C)c2OCc2ccc3c(c2C)CCN(C[C@H]2CCCO2)CC3)n1 [Compound 222] | 85 (≈ 146 µM) | 71 (≈ 122 µM) | 73 (≈ 125 µM) |
| COc1c(C(=O)O)cnn1-c1cccc(-c2cccc(C)c2OCc2ccc3c(c2C)CCN(C[C@@H]2CCCO2)CC3)n1 [Compound 223] | 81 (≈ 139 µM) | 68 (≈ 117 µM) | 69 (≈ 118 µM) |
| CCOc1c(C(=O)O)cnn1-c1cccc(-c2cccc(C)c2OCc2ccc3c(c2C)CCN([C@H]2CCOC2)CC3)n1 [Compound 225] | 95 (≈ 163 µM) | 78 (≈ 134 µM) | 81 (≈ 139 µM) |
| CCOc1c(C(=O)O)cnn1-c1cccc(-c2cccc(C)c2OCc2ccc3c(c2C)CCN(C[C@H]2CCO2)CC3)n1 [Compound 226] | 98 (≈ 168 µM) | 83 (≈ 142 µM) | 86 (≈ 148 µM) |
| CCOc1c(C(=O)O)cnn1-c1cccc(-c2cccc(C)c2OCc2ccc3c(c2C)CCN([C@@H]2CCOC2)CC3)n1 [Compound 227] | 90 (≈ 154 µM) | 73 (≈ 125 µM) | 77 (≈ 132 µM) |
| CCOc1c(C(=O)O)cnn1-c1cccc(-c2cccc(C)c2OCc2ccc3c(c2C)CCN(C[C@@H]2CCO2)CC3)n1 [Compound 228] | 96 (≈ 165 µM) | 78 (≈ 134 µM) | 81 (≈ 139 µM) |

| SMILES | solubility at 24 h (pH 2.2, aqueous buffer) [µg/mL] | solubility at 24 h (pH 4.5, aqueous buffer) [µg/mL] | solubility at 24 h (pH 6.8, aqueous buffer) [µg/mL] |
| --- | --- | --- | --- |
| COc1c(C(=O)O)cnn1-c1cccc(-c2cccc(C)c2OCc2cc(F)c3c(c2)CCN(C[C@H]2CCCCO2)C3)n1 [Compound 229] | 100 (≈ 170 µM) | 81 (≈ 138 µM) | 73 (≈ 124 µM) |
| COc1c(C(=O)O)cnn1-c1cccc(-c2cccc(C)c2OCc2ccc3c(c2F)CCN(C[C@@H]2COCCO2)C3)n1 [Compound 231] | 120 (≈ 204 µM) | 92 (≈ 156 µM) | 87 (≈ 148 µM) |
| CCOc1c(C(=O)O)cnn1-c1cccc(-c2cccc(C)c2OCc2ccc3c(c2C)CCN(C[C@H]2CCCCO2)C3)n1 [Compound 232] | 93 (≈ 156 µM) | 74 (≈ 124 µM) | 63 (≈ 106 µM) |
| CCOc1c(C(=O)O)cnn1-c1cccc(-c2cccc(C)c2OCc2ccc3c(c2C)CCN(C[C@H]2CCCO2)CC3)n1 [Compound 233] | 98 (≈ 164 µM) | 73 (≈ 122 µM) | 86 (≈ 144 µM) |
| COc1c(C(=O)O)cnn1-c1cccc(-c2cccc(C)c2OCc2ccc3c(c2F)CCN(C[C@H]2COCCO2)C3)n1 [Compound 234] | 120 (≈ 204 µM) | 97 (≈ 165 µM) | 91 (≈ 155 µM) |
| CCOc1c(C(=O)O)cnn1-c1cccc(-c2cccc(C)c2OCc2ccc3c(c2C)CCN(C[C@@H]2CCCO2)CC3)n1 [Compound 235] | 100 (≈ 168 µM) | 83 (≈ 139 µM) | 88 (≈ 147 µM) |
| CCOc1c(C(=O)O)cnn1-c1cccc(-c2cccc(C)c2OCc2ccc3c(c2C)CCN(C[C@@H]2CCCCO2)C3)n1 [Compound 236] | 110 (≈ 184 µM) | 96 (≈ 161 µM) | 83 (≈ 139 µM) |
| COc1c(C(=O)O)cnn1-c1cccc(-c2cccc(C)c2OCc2cc(C)c3c(c2)CCN(C2CCCOC2)C3)n1 (stereo not drawn) [Compound 237] | 94 (≈ 165 µM) | 55 (≈ 96.7 µM) | 52 (≈ 91.4 µM) |
| COc1c(C(=O)O)cnn1-c1cccc(-c2cccc(C)c2OCc2ccc3c(c2C)CCN(C2CCCOC2)C3)n1 (stereo not drawn) [Compound 238] | 77 (≈ 135 µM) | 55 (≈ 96.7 µM) | 52 (≈ 91.4 µM) |
| COc1c(C(=O)O)cnn1-c1cccc(-c2cccc(C)c2OCc2cc(C)c3c(c2)CCN(CC2(C)COC2)C3)n1 [Compound 239] | 91 (≈ 160 µM) | 71 (≈ 125 µM) | 72 (≈ 127 µM) |
| COc1c(C(=O)O)cnn1-c1cccc(-c2cccc(C)c2OCc2cc(C)c3c(c2)CCN(CC2COCCO2)C3)n1 (stereo not drawn) [Compound 240] | 92 (≈ 157 µM) | 69 (≈ 118 µM) | 67 (≈ 115 µM) |
| CCOc1c(C(=O)O)cnn1-c1cccc(-c2cccc(C)c2OCc2cc(C)c3c(c2)CCN(C2CCOC2)C3)n1 (stereo not drawn) [Compound 241] | 100 (≈ 176 µM) | 81 (≈ 142 µM) | 84 (≈ 148 µM) |
| COc1c(C(=O)O)cnn1-c1cccc(-c2cccc(C)c2OCc2cc(C)c3c(c2)CCN(C2CCOC2)C3)n1 (stereo not drawn) [Compound 242] | 110 (≈ 198 µM) | 79 (≈ 142 µM) | 78 (≈ 141 µM) |
| CCOc1c(C(=O)O)cnn1-c1cccc(-c2cccc(C)c2OCc2cc(C)c3c(c2)CCN(CC2COCCO2)C3)n1 (stereo not drawn) [Compound 243] | 100 (≈ 167 µM) | 82 (≈ 137 µM) | 81 (≈ 135 µM) |
| COCC(C)N1CCc2cc(COc3c(C)cccc3-c3cccc(-n4ncc(C(=O)O)c4OC)n3)cc(C)c2C1 (stereo not drawn) [Compound 244] | 120 (≈ 216 µM) | 99 (≈ 178 µM) | 98 (≈ 176 µM) |
| CCOc1c(C(=O)O)cnn1-c1cccc(-c2cccc(C)c2OCc2ccc3c(c2)CCCN(C2CCCOC2)C3)n1 (stereo not drawn) [Compound 245] | 100 (≈ 172 µM) | 79 (≈ 136 µM) | 92 (≈ 158 µM) |
| COc1c(C(=O)O)cnn1-c1cccc(-c2cccc(C)c2OCc2ccc3c(c2)CN(CC2COCCO2)C3)n1 (stereo not drawn) [Compound 247] | 90 (≈ 162 µM) | 75 (≈ 135 µM) | 71 (≈ 128 µM) |
| CCc1cc(COc2c(C)cccc2-c2cccc(-n3ncc(C(=O)O)c3OC)n2)cc2c1CN(C1CCOCC1)CC2 [Compound 248] | 94 (≈ 161 µM) | 75 (≈ 129 µM) | 74 (≈ 127 µM) |
| CCc1cc(COc2c(C)cccc2-c2cccc(-n3ncc(C(=O)O)c3OC)n2)cc2c1CN(C1COC1)CC2 [Compound 249] | 94 (≈ 169 µM) | 67 (≈ 121 µM) | 93 (≈ 168 µM) |
